Assay results: the NIST ThermoML archive (doi:10.1016/j.jct.2004.09.018)
± gives the expanded uncertainty stated by the source.

Columns and labels:
[1] = Crystal
[2] = Molar enthalpy of transition or fusion; settings: Crystal
[3] = molar heat capacity at constant pressure; settings: 101.33 kPa, Crystal

O=Cc1ccc([N+](=O)[O-])cc1[N+](=O)[O-] [2,4-dinitrobenzaldehyde]
Settings	Molar enthalpy of transition or fusion [kJ/mol]	Triple point temperature [K]
[1]	–	344.91 ± 0.64
[2]	21.2 ± 0.28	–

[3]
Settings	molar heat capacity at constant pressure [J/K/mol]
78.06 K	18.67 ± 0.96
80 K	19.77 ± 0.99
80.91 K	20.32 ± 1
82.54 K	21.07 ± 1
85.26 K	22.24 ± 1
87.46 K	22.9 ± 1.1
89.5 K	23.64 ± 1.1
91.38 K	24.46 ± 2.8
93.21 K	24.83 ± 2.8
94.98 K	25.29 ± 2.8
96.7 K	25.84 ± 2.8
98.42 K	26.88 ± 2.8
100.08 K	26.98 ± 2.8
101.76 K	28.11 ± 2.8
103.39 K	28.44 ± 2.8
105 K	28.62 ± 2.8
106.58 K	28.9 ± 2.8
108.14 K	29.07 ± 2.8
109.68 K	30.37 ± 2.9
111.2 K	30.49 ± 2.9
112.69 K	30.46 ± 2.9
114.18 K	31.08 ± 2.9
115.64 K	31.43 ± 2.9
117.09 K	32.01 ± 2.9
118.49 K	32.5 ± 2.9
119.86 K	32.88 ± 2.9
121.24 K	33.37 ± 2.9
122.59 K	33.47 ± 2.9
123.93 K	34.53 ± 2.9
125.27 K	34.53 ± 2.9
126.61 K	35.11 ± 2.9
127.96 K	35.79 ± 2.9
129.3 K	36.37 ± 2.9
130.69 K	36.18 ± 2.9
132.09 K	36.27 ± 2.9
133.43 K	37.34 ± 2.9
134.81 K	37.63 ± 2.9
136.17 K	37.14 ± 2.9
137.59 K	37.92 ± 2.9
138.97 K	37.37 ± 2.9
140.34 K	37.47 ± 2.9
141.69 K	37.08 ± 2.9
143.04 K	37.04 ± 2.9
144.37 K	37.54 ± 2.9
145.68 K	37.82 ± 2.9
146.97 K	37.82 ± 2.9
148.25 K	38.92 ± 3
149.52 K	39.16 ± 3
150.78 K	38.26 ± 3
152.03 K	39.82 ± 3
153.25 K	40.53 ± 3
154.49 K	40.73 ± 3
155.72 K	40.92 ± 3
156.96 K	41.6 ± 3
158.19 K	41.6 ± 3
159.41 K	42.39 ± 3
160.67 K	43.2 ± 3
161.9 K	43.2 ± 3
163.15 K	43.8 ± 3
164.37 K	44.11 ± 3
165.6 K	44.7 ± 3
166.79 K	45.28 ± 3
167.97 K	45.57 ± 3
169.2 K	45.95 ± 3
171.64 K	46.17 ± 3.1
175.32 K	46.7 ± 3.1
178.53 K	47.5 ± 3.1
181.57 K	47.76 ± 3.1
184.51 K	49.49 ± 3.1
187.41 K	49.49 ± 3.1
190.27 K	51.22 ± 3.1
193.04 K	52.12 ± 3.1
195.57 K	52.73 ± 3.1
198.42 K	54.38 ± 3.2
201.09 K	55.42 ± 3.2
202.7 K	55.05 ± 3.2
